# Source: paper PMC10053369, “Recombinant Analogs of Sea Anemone Kunitz-Type Peptides Influence P2X7 Receptor Activity in Neuro-2a Cells” (Marine Drugs, 2023)
# Positions of bridges follow the written chain, without caps; N, C: chain ends. No end group written: not given here.
# How the values were obtained:
# [1] = test system: P2X7 in Neuro-2a cells; assay: ATP-induced Ca2+ influx (Fluo-8 AM); format: cell-based, mouse; conditions: for reduction of calcium level: 30 min pre-incubation, 1 mM ATP
# Experimental: (§1) Neuro-2a neuroblastoma cells (ATCC® CCL-131™) were obtained from American Type Culture Collection (Manassas, VA, USA). The cells were cultivated in DMEM medium (BioloT, St. Petersburg, Russia) supplemented with 10% of fetal bovine serum (BioloT, St. Petersburg, Russia) and 1% penicillin/streptomycin (BioloT, St. Petersburg, Russia) at 37 °C and 5% CO2. Initially, cells were incubated in cultural flasks until sub-confluent (~80%). For testing, Neuro-2a cells were seeded in 96-well plates and experiments were started after 24 h.
# Neuro-2a cells were seeded in 96-well plates at a density of 4 × 10^4 cells/well and incubated in DMEM for 24 h at 37 °C, 5% CO2. Then the cells were washed twice with culture medium and loaded with 5 μM Fluo-8 AM (Abcam, Cambridge, UK) dye and 1 μM Pluronic® F-127 (Sigma-Aldrich, St. Louis, MO, USA), and incubated for 40 min at 37 °C in HBSS: 140 mM NaCl, 5 mM KCl, 0.8 mM MgCl2, 2 mM CaCl2, 10 mM glucose, 10 mM HEPES, pH 7.4. Then the cells were washed two times with the same solution but without the fluorescent dye and treated with the studied peptides for 30 min at RT in the dark. In some experiments Ca^2+-free medium was used: 140 mM NaCl, 5 mM KCl, 0.8 mM MgCl2, 10 mM glucose, 10 mM HEPES, 5 mM EGTA, pH 7.4. ATP (1 mM final concentration) was added using a microinjector (20 μL/well) 10 s later the baseline recording and the readings were taken up to 50 s in 1 s intervals. The standard P2X7 inhibitor, A438079 (Sigma-Aldrich, St. Louis, MO, USA), was used as inhibitory control. Ionomycin (Sigma-Aldrich, St. Louis, MO, USA) and BHQ were used to generate a generic calcium signal in cells. 2,5,-di(t-butyl) hydroquinone (BHQ) was synthesized and kindly provided by Dr. Polonik S.N. (PIBOC FEBRAS). Fluo-8 was excited at 485 nm, and the emission at 520 nm was measured with a PHERAstar®FS plate reader (BMG LABTECH, Ortenberg, Germany). The data were processed by MARS Data Analysis v. 3.01R2 (BMG Labtech, Ortenberg, Germany). Mean values and standard error of peak height calcium were calculated.
# (§2) All data were obtained in three independent replicates and calculated values were expressed as mean ± standard error of the mean (SEM). The Student’s t-test was performed using SigmaPlot 14.0 (Systat Software Inc., San Jose, CA, USA) to determine statistical significance.
# [2] = test system: P2X7 in Neuro-2a cells; assay: ATP-induced YO-PRO-1 uptake (P2X7 pore formation); format: cell-based, mouse; conditions: short-term effect
# Experimental: as §1
# Neuro-2a cells were seeded in 96 well plates at a density of 4 × 10^4 cells/well and incubated in DMEM for 24 h, 37 °C, 5% CO2. Then the cells were washed once with HBSS and filled with 180 μL of the same buffer. YO-PRO-1 (Sigma-Aldrich, St. Louis, MO, USA, 5 μM final concentration) was loaded into the wells, the cells were incubated for 15 min at 37 °C. Further, the studied peptides were added to the cells at concentrations of 10, 1, 0.1 and 0.01 μM and incubated for 10 min at 37 °C. After that ATP (4 mM final concentration) was added and the plates were incubated for an additional 10 min. The standard P2X7R inhibitor, A438079 (Sigma-Aldrich, St. Louis, MO, USA), was used as inhibitory control. Then the cells were washed three times with the buffer solution and fluorescence intensity was measured with PHERAstar FS plate reader (BMG, LABTECH, Ortenberg, Germany) at λex = 485 nm and λem= 520 nm in the “End Point” mode. The effectiveness of compounds was evaluated relative to control without ATP.
# as §2
# [3] = test system: P2X7 in Neuro-2a cells; assay: P2X7 immunofluorescence / expression (confocal microscopy); format: cell-based, mouse; conditions: 10 μM peptide, 24 h
# Experimental: Neuro-2a cells on coverslips were washed once with PBS, fixed with cold 100% methanol for 5 min in an ice bath, and then washed (3 × 5 min) with PBS. For P2X7 receptor immunocytochemistry, cells were blocked with 10% bovine serum in PBS containing 0.1% Triton X-100 (1 h) and incubated with specific to P2X7 primary antibodies (1:1000; orb35965 Biorbyt Ltd., Cambridge, UK) overnight at 4 °C. Cells were washed with PBS (3 × 10 min) and incubated with Alexa Fluor 594-conjugated goat anti-rabbit secondary antibodies (1:200, Abcam plc, Cambridge, UK) for 2 h at room temperature. Cells were washed in PBS (3 × 10 min) before mounting. In control experiments, the primary antibody was omitted, and immunostaining was never observed. Neuro-2a cell fluorescence was studied using an LSM 710 META confocal laser scanning microscope (Carl Zeiss, Göttingen, Germany) equipped with an Ar laser with an effective power of 30 mW. The obtained images were analyzed using the ZEN 2.3 (blue edition) software (Carl Zeiss, Göttingen, Germany).
# [4] = test system: Kv1.1, Kv1.2, Kv1.3 and Kv1.6 isoforms as well as insect Shaker IR; conditions: range over channels and both peptides, ref [16],[25]; cited from earlier work
# Excerpt: The studied peptides are analogs of sea anemone Kunitz-type peptides and attract our attention due to their wide spectrum of biological activity and ability to interact with important molecular targets.
sequence,measurement,setting,value
"RGICSEPKVVGPCKAGLRRFYYDSETGECKPFIYGGCKGNKNNFETLHACRGICRA (disulfide 4-54, 13-37, 29-50 (inferred)) [HCRG1]",reduction of calcium level,"[1]; 0.1 μM peptide, mean ± SE, n = 3",57.5 ± 11.6%
same,reduction of calcium level,[1]; 0.1–10 μM peptide,significantly reduced the calcium level
same,effect on Ca2+ influx (summary in discussion),[1]; short-term effect,a significant effect on Ca^2+ influx into cells
same,entry of YO-PRO-1 into cells (summary in discussion),[2],regulating the entry of low molecular weight fluorescent dye YO-PRO-1 into cells
same,amount of P2X7 in Neuro-2a cells,[3],significantly reduced the amount of P2X7 in Neuro-2a cells
same,decrease in P2X7 fluorescence,"[3]; mean ± SE, n = 3, p < 0.05",24.1 ± 3.2%
same,IC50,[4],12 to 400 nM
